Test results from patent publication US6207674A, “Dextromethorphan and oxidase inhibitor for weaning patients from narcotics and anti-depressants” (priority 1999, dated 2001).
Read-outs that look alike come from different tables or passages of the source.

How the values were obtained:
[1] = coadministration with DM; cited from earlier work
[2] = test system: cytochrome P450-2D6 enzyme; settings: cited from earlier work
[3] = test system: pain; settings: DM combined with morphine; published reports; cited from earlier work
[4] = test system: morphine and anti-depressant dependence; assay: Patient Number 1, initial 3-week trial of DM alone (neuropathic pain, weaning from morphine and anti-depressants); assay type: in vivo, human
Source text: They took capsules with 30 milligrams of DM, twice each day.

[5] = read-out: Michaelis-Menton inhibition (Ki) value, P450-2D6, in vitro, Inaba et al 1985
[6] = DM 30 mg twice a day, oral, about three weeks, no quinidine

Compound | Ki [2, 5] [µM] | also measured
C=C[C@H]1C[N@@]2CC[C@H]1C[C@@H]2[C@@H](O)c1ccnc2ccc(OC)cc12 [Quinidine, quinidine] | 0.06 | effect on DM concentration / level in blood [1]: increase the level of DM in the blood of most patients
O=c1[nH]c2ccccc2n1CCCN1CCC(n2c(=O)[nH]c3cc(Cl)ccc32)CC1 [domperidone] | 8 | 
CNCCC=C1c2ccccc2CCc2ccccc21 [nortriptyline] | 15 | 
CC[C@H]1[C@@H]2C[C@H]3[C@@H]4N(C)c5ccccc5[C@]45C[C@@H]([C@H]2[C@H]5O)N3[C@@H]1O [ajmaline] | 2 | 
Cc1cccc(C)c1OCC(C)N (stereo not shown) [mexiletine] | 30 | 
COc1ccc(Cc2nccc3cc(OC)c(OC)cc23)cc1OC [papaverine] | 25 | 
CNCCC(Oc1ccc(C(F)(F)F)cc1)c1ccccc1 (stereo not shown) [Fluoxetine, fluoxetine] |  | effect on DM concentration / level in blood [1]: increase the concentrations of DM
O=C(CCCN1CCC(O)(c2ccc(Cl)cc2)CC1)c1ccc(F)cc1 [haloperidol] |  | Ki [2]: 1 µM
COc1ccc2c(c1)[C@]13CCCC[C@@H]1[C@H](C2)N(C)CC3 [DM, dextromethorphan] |  | potentiation of pain-relieving activity of morphine [3]: potentiated the pain-relieving activity of morphine; symptoms reported at follow-up exam [4, 6]: symptoms were unchanged; use and dosages of morphine and WELLBUTRIN [4, 6]: remained the same; nighttime dosage of ELAVIL at follow-up ([4]; reduced from 250 mg, DM 30 mg twice a day, about three weeks, no quinidine): 100 mg; overall result of DM by itself (summary) ([4]; without an oxidase inhibitor): no substantial benefit
C=CCOc1ccccc1OCC(O)CNC(C)C (stereo not shown) [oxprenolol] | 15 | 
NC(=O)C1(N2CCCCC2)CCN(CCCC(=O)c2ccc(F)cc2)CC1 [pipamperone] |  | Ki [2]: 4 µM
COCCc1ccc(OCC(O)CNC(C)C)cc1 (racemic) [metaprolol] |  | Ki [2]: 18 µM
CC(C)(C)NC[C@H](O)COc1nsnc1N1CCOCC1 [timolol] | 18 | 
CC(CCc1ccccc1)NCC(O)c1ccc(O)c(C(N)=O)c1 (stereo not shown) [labetalol] | 7 | 
C=C[C@H]1C[N@@]2CC[C@H]1C[C@H]2[C@H](O)c1ccnc2ccc(OC)cc12 [quinine] | 15 | 
CC(C)NCC(O)COc1cccc2ccccc12 (stereo not shown) [propranolol] | 15 | 
CN1[C@@H](CC(=O)c2ccccc2)CCC[C@H]1C[C@H](O)c1ccccc1 [lobeline] | 2 | 
